{
  "source": "patent US10550118B2",
  "about": "“JAK inhibitors containing a 4-membered heterocyclic amide” (THERAVANCE BIOPHARMA R&D IP, LLC, priority 2017, dated 2020)",
  "test_system": "IFNγ induced CXCL10 and CXCL9 secretion in EpiAirway tissue cultures",
  "assay": "Inhibition of IFNγ induced chemokines CXCL9 and CXCL10 in human 3D airway cultures",
  "format": "cell-based",
  "settings": "192 h, day 8, ±STDV",
  "experimental": "Assay 7: Inhibition of IFNγ and IL-27 Induced Chemokines CXCL9 and CXCL10 in Human 3D Airway Cultures\nEpiAirway tissue cultures were obtained from Mattek (AIR-100). Cultures were derived from asthmatic donors. In a cell culture insert, human derived tracheal/bronchial epithelial cells were grown and differentiated on a porous membrane support, allowing an air-liquid interface with warmed culture medium below the cells and a gaseous test atmosphere above. Tissues were cultured in maintenance media (Mattek, AIR-100-MM) in a 37° C., 5% CO2 humidified incubator. Four donors were tested. On Day 0, tissue cultures were treated with test compounds at 10 μM, 1 μM and/or 0.1 μM. Compounds were diluted in dimethyl sulfoxide (DMSO, Sigma) to a final concentration of 0.1%. DMSO at 0.1% was used as a vehicle control. Test compounds were incubated with cultures for 1 hour at 37° C., 5% CO2, followed by the addition of pre-warmed media containing IFNγ (R&D Systems) or IL-27 (R&D Systems) at a final concentration at 100 ng/ml. Tissue cultures were maintained for 8 days. Media was replaced every 2 days with fresh media containing compounds and IFNγ or IL-27. […] Data is expressed as % Inhibition+/−standard deviation (±STDV). Percent inhibition was determined by compound inhibitory potency against IFNγ or IL-27 induced CXCL10 or CXCL9 secretion compared to vehicle treated cells. […]",
  "data": [
    {"compound": "CCc1cc(O)c(F)cc1-c1ccc2c(-c3nc4c([nH]3)CN(C(C)C)[C@H](C(=O)N3CC(N(C)C)C3)C4)n[nH]c2c1", "note": "[Example 2, (S)-(3-(dimethylamino)azetidin-1-yl)(2-(6-(2-ethyl-5-fluoro-4-hydroxyphenyl)-1H-indazol-3-yl)-5-isopropyl-4,5,6,7-tetrahydro-3H-imidazo[4,5-c]pyridin-6-yl)methanone]", "values": [
      {"measurement": "inhibition at 1 µM", "result": 65, "unit": "%"}
    ]}
  ]
}
